Measurements as given in patent US20220380937A1, “IDENTIFICATION OF SPLICING-DERIVED ANTIGENS FOR TREATING CANCER” (THE REGENTS OF THE UNIVERSITY OF CALIFORNIA, priority 2019, published 2022).

Tested on: CD3+CD8+ T cells
Assay: MHC class I dextramer-based T-cell recognition assay (flow cytometry of PBMCs/TILs with pMHC complexes)
Set-up: species or system human
Conditions: for tested healthy donors whose T cells recognized the epitope: three HLA-matched healthy donors tested, PBMCs
Procedure: Assays to determine immunogenicity and/or TCR binding can be performed. One such as is the dextramer flow cytometery assay. Generally, custom-made HLA-matched MHC Class I dextramer:peptide (pMHC) complexes are developed or purchased (Immudex, Copenhagen, Denmark). T cells from peripheral blood mononuclear cells (PBMCs) or tumor-infiltrating lymphocytes (TILs) are incubated the pMHC complexes and stained, which are then run through a flow cytometer to determine if the peptide is capable of binding a TCR of a T cell.
Finally, the inventors sought to validate the immunogenicity and T-cell recognition of IRIS-identified candidate TCR targets using an MHC class I dextramer-based assay (12,24). The inventors focused on predicted AS-derived tumor epitopes with strong putative HLA-binding affinity to common HLA types found in at least five of the 22 patients. The inventors selected seven AS-derived tumor-associated epitopes (five HLA-A02:01 and two HLA-A03:01) for dextramer-based T-cell recognition testing (Table 4). […] The inventors obtained customized HLA-matched, fluorescently labeled MEW class I dextramer:peptide (pMHC) complexes for each candidate epitope. The inventors conducted flow cytometry to detect CD8^+ T-cell binding with the pMHC complexes using available peripheral blood mononuclear cells (PBMCs) and/or ex vivo-expanded tumor-infiltrating lymphocytes (TILs). Based on the binding of each AS-derived tumor epitope to a patient's CD3^+CD8^+ T cells, the inventors classified epitope reactivity as ‘positive’ (binding>0.1% of cells), ‘marginal’ (binding 0.01-0.1% of cells), or ‘negative’ (binding<0.01% of cells). […] The inventors analyzed samples from two HLA-A02:01 and four HLA-A03:01 patients, as well as samples from three HLA-A02:01 and three HLA-A03:01 healthy donors (Table 5, Supplementary Data).
Dextramer flow-cytometric analysis of PBMCs and TILs. For each AS-derived peptide selected for validation, custom-made HLA-matched MHC Class I dextramer:peptide (pMHC) complexes were purchased from Immudex (Copenhagen, Denmark). Immudex also provided pMHC complexes for common cytomegalovirus (CMV) epitopes (cat. nos. WB2132 and WC2197) and for a nonhuman epitope (NI3233) as a negative control. Each pMHC complex was purchased with two separate tags for APC or PE fluorescence labeling, to increase specificity to targeted T cells with dual labeling.
To facilitate proper gating of CD8^+ T cells from PBMC and TIL populations, the following panel of antibodies (from BioLegend) was set up: CD3 BV605 (cat. no. 300460), CD8 FITC (cat. no. 344704), CD4 BV421 (cat. no. 317434), CD19 BV421 (cat. no. 302234), CD56 BV421 (cat. no. 362552), and CD14 BV421 (cat. no. 301828). For single-color compensation controls, OneComp eBeads were used (Thermo Fisher Scientific, cat. no. 01-1111-41).
For each set of pMHC complexes, at least 3×10^6 cells were stained according to manufacturer's guidelines. Briefly, cells were thawed in a 37° C. water bath and washed with RPMI and D-PBS (Fisher Scientific, cat. no. MT21031CV) before staining for cell viability with the Zombie Violet Viability Kit (BioLegend, cat. no. 423113). Next, the appropriate amount of each pMHC complex in a staining buffer of D-PBS with 5% fetal bovine serum (Fisher Scientific, cat. no. MT35016CV) was added to each sample. After 10 min, the aforementioned antibody cocktail was added. After a 30-min incubation period, cells were washed twice in the same staining buffer. All samples were tested in a BD LSRII flow cytometer, and data were analyzed with FlowJo (Treestar). For gating, the lymphocyte population was first selected using forward and side scatter, and then the BV421-negative population was gated out (i.e. excluding dead cells and the CD14, CD19, CD56, and CD4 populations) before selecting the CD3^+CD8^+population. […]

[1] = patient LB2867, ex vivo-expanded TILs

KIGRLVTRK (listed as Homo sapiens)
recognition by patient T cells (GBM patients, PBMCs and/or ex vivo-expanded TILs): recognized | tested patients whose T cells recognized the epitope (four HLA-A03:01 GBM patients tested, PBMCs and/or TILs, at least marginal reactivity = recognized): all four tested patients | epitope-reactive T cells, % of T cells in PBMCs (patient LB2867, PBMCs): 0.03% | epitope reactivity (recognition) in expanded TIL population [1]: positive (‘positive’ (binding>0.1% of cells)) | epitope-reactive T cells, % of T cells in TILs [1]: 1.69% | tested healthy donors whose T cells recognized the epitope: one of the three

YAIVWVNGV (listed as Homo sapiens)
reactive cells, % of CD3+CD8+ T cells (the one recognizing healthy donor of three tested): 0.013% | tested healthy donors whose T cells recognized the epitope: only one healthy donor
